From US20200078360A1, “SMALL MOLECULE DUAL INHIBITORS OF EGFR/PI3K AND USES THEREOF” (The Regents of the University of Michigan, priority 2016, published 2020) come the findings set out here.

The subject of data set [1] is ERBB and PI3K family members. As to the kind of experiment: potency and selectivity against kinase family members (FIG. 1). It is filed as biochemical.
The nature of data set [2]: metabolic stability (FIG. 2). It counts as in vitro ADME.
In data set [3] the test system is EGFR and PI3K pathway signaling. Briefly: cellular EGFR and PI3K pathway signaling (Western blots). It counts as cell-based. The following applies: FIG. 4. As for the experimental part:
Cells or tumors were lysed in NP-40 lysis buffer [25 mmolL Tris-HCl (pH 7.6), 150 mmol/L NaCl, 1% Nonidet P-40, 10% glycerol, 1 mmol/L EDTA, 1 mmol/L dithiothreitol, and protease and phosphatase inhibitors], rocked for 30 minutes at 4° C., and centrifuged at 13,200 rpm for 20 minutes at 4° C. Protein concentration was determined by BioRad Protein Assays and lysates were subsequently subjected to SDS gel electrophoresis. Proteins were transferred to polyvinylidene fluoride (PVDF) membranes and probed with primary antibodies recognizing p-EGFR tyr1068), EGFR, p-HER2 (tyr1248), HER2, p-AKT (ser473), p-AKT (thr308), AKT, pERK1/2 (thr202/tyr204), ERK1/2, pS6K (ser235/236), S6K, and cleaved PARP (all from Cell Signaling Technology) and beta actin (Abcam). After incubation with anti-rabbit HRP-linked secondary antibody (Jackson ImmunoResearch Laboratories, Inc.), proteins were detected using chemiluminescence (GE Healthcare).
Background: Immunoblotting shows a protein as a band on a membrane.

A further data set relates to HCT-116 (KRASmt) tumors. Briefly: single agent activity against HCT-116 tumors. It is filed as in vivo. The following applies: FIG. 5.
The next data set concerns RKO (BRAFmt) tumors. Briefly: single agent activity against RKO tumors. It counts as in vivo. The following applies: FIG. 5.
A short description of data set [4]: tolerability of daily oral dosing. It counts as in vivo. The settings on record: daily oral dosing of 100 mg/kg, FIG. 6. How it is done: (§1) For the xenograft studies established from the patient-derived xenograft (PDX) models (UM CRC 14-929 and UM CRC 15-1269), female 6- to 7-week-old NCR nude mice (CrTac:NCr-Foxnlnu from Taconic) were implanted subcutaneously with low-passage PDX tumor fragments (30 mg) into the region of the right axilla. For the xenograft studies established from cell lines (CT-26), cells were injected (1×10^6 cells per injection) into the flanks of female 6- to 7-week old NCR nude mice. In both cases, the mice were randomized into treatment groups and treatments initiated when tumors reached 100 to 200 mg. […] Subcutaneous tumor volume and body weights were measured two to three times a week. Tumor volumes were calculated by measuring two perpendicular diameters with calipers and using the formula: tumor volume ¼ (length x width^2)/2. Percent treated/control (% TC) was calculated by dividing the median treated tumor weight by the median control tumor weight and multiplying by 100 on the last day of treatment. […] Increase in lifespan was calculated by dividing the median increase in lifespan (days) by the median survival time of the vehicle control group. […]

In a further data set the test system is xenograft. Briefly: in vivo efficacy in combination with MEK inhibitors (FIG. 22). On the set-up: species or system mice. As for the experimental part:
as §1

On to `CS(=O)(=O)Nc1cc(-c2ccc3ncnc(Nc4ccc(F)c(Cl)c4)c3c2)cnc1Cl` [MTX-211], for which the “potency and selectivity against ERBB and PI3K family members” value in data set [1] was “potent and highly selective”. The metabolic stability result in data set [2] was “favorable metabolic stability”. Moreover, the “modulation of cellular EGFR and PI3K pathway signaling” value in data set [3] is “modulates cellular EGFR and PI3K pathway signaling”. For the same molecule, the “activity against HCT-116 (KRASmt) tumors” value in the data set with HCT-116 (KRASmt) tumors is “single agent activity”. Moreover, the “activity against RKO (BRAFmt) tumors” value in the data set on RKO (BRAFmt) tumors is on record as “single agent activity”. In data set [4], the tolerability result is “well tolerated”. Besides, the “in vivo efficacy when combined with MEK inhibitors” value in the data set with xenograft is on record as “in vivo potentiation of MTX-211 efficacy”.
